Reference: PubChem BioAssay AID1963826 (Molecular Pharmacology Branch, DTP, NCI, 2024)
Values joined by “and” are separate entries in the source; they are usually repeats but may differ in a detail not shown here. Identical values can stand only once.

System: 926638-142-R-J1-PDC complex spheroid viability
Assay: Anticancer human tumor 926638-142-R-J1-PDC patient-derived endometrial carcinoma cell line growth inhibition [POLQ]
Conditions: for viability, T/C: stronger effect = lower value
Protocol: Multicellular complex tumor spheroid response to Polymerase (POL) inhibitors (novobiocin, ART-558, RP6685) in combination with a variety of drugs and investigational agents in selected tumor cell lines
The POL inhibitors (novobiocin, ART-558, and RP6685) were evaluated both individually and in combination with standard of care and investigational anticancer small molecules within a complex spheroid model of solid tumors. . Complex spheroids include a stromal component modeled by human endothelial cells (HUVEC) and fibroblasts modeled by human mesenchymal stem cells (MSCs). The concentration ranges selected for each drug and investigational agent were based upon clinically achievable concentrations if the clinical Cmax of the agent was known.
Compounds. The drugs and investigational agents: novobiocin (NSC847541), ART-558 (NSC835418), RP-6685 (NSC848927), peposertib (NSC802822), ceralasertib (NSC780249), elimusertib (NSC800525), camonsertib (NSC841442), AZD-1390 (NSC803789), olaparib (NSC753686), talazoparib (NSC767125), rucaparib (NSC756644), sotorasib (NSC818433), MRTX-1133 (NSC836407), SN-38 (NSC673596), topotecan (NSC609699), epotoside (NSC141540), doxorubicin (NSC123127), gemcitabine (NSC613327), 5-fluorouracil (NSC19893), paclitaxel (NSC125973), vemurafenib (NSC761431), MSA-2 (NSC828583), SN-011 (NSC837082), adavosertib (NSC754352), prexasertib (NSC758257), carboplatin (NSC241240) and oxaliplatin (NSC266046), were obtained from the National Cancer Institute (NCI) Developmental Therapeutics Program Chemical Repository (21). The FDA-approved anticancer drug set is available from the Developmental Therapeutics Program at https://dtp.cancer.gov/organization/dscb/obtaining/. […] The stock solutions were prepared in dimethyl sulfoxide (DMSO, Sigma-Aldrich, St. Louis, MO, cat. D2650), except for the platinum compounds which were prepared in saline (Quality Biological, Gaithersburg, MD, cat. 114-055-101), at 800-fold the tested concentration and stored at -70 degrees C prior to their use. All drugs and investigational agents were tested over a range starting from a high concentration at or near the clinical Cmax and decreasing in half-log increments. If the clinical Cmax for an agent had not been determined, the highest concentration tested was 10 microM, except for SN-38, which was tested at a high concentration of 1 microM.
Cell Culture. All cells were maintained in an incubator at 37 degrees C and 5% CO2 with 95% humidity. The PDC lines were cultured according to standard operating procedures established by the NCI PDMR (https://pdmr.cancer.gov). Table 3 of the manuscript, lists the cell lines along with the number of the three cell types plated to form the mct-spheroids and media for tumor cell growth. After thawing, all PDC lines, except 997537-175-T-J1-PDC and 415267-285-R-J2-PDC, were cultured in Matrigel-coated flasks prepared with a working solution of 1X Ham's F-12 nutrient mix, without supplementation (Thermo Fisher Scientific, cat. 11765054), 100 U/mL penicillin-streptomycin (Thermo Fisher Scientific, cat. 15140122), and 2.5% Matrigel (Corning Inc., Corning, NY, cat. 354248) for the first three passages. The two PDC lines 997537-175-T-J1-PDC and 415267-285-R-J2-PDC were cultured on uncoated flasks. The 857933-349-R-J2-PDC line was cultured in 6C/Colon 1B media containing advanced DMEM/F-12 (Thermo Fisher Scientific, cat. 12634028), 10 mM HEPES (Thermo Fisher Scientific, cat. 15630080), 1X GlutaMAX supplement (Thermo Fisher Scientific, cat. 35050061), 0.1 mg/mL primocin (InvivoGen, San Diego, CA, cat. ant-pm-2), 10% defined fetal bovine serum, heat inactivated (HyClone Laboratories Inc., Logan, UT, cat. SH30070.03HI), 50% L-WRN conditioned media (ATCC, cat. CRL-3276), 1.25 mM N-Acetyl-L-cysteine (Sigma-Aldrich, cat. A9165), 10 mM nicotinamide (Sigma-Aldrich, cat. N0636), 1X B-27 supplement (Thermo Fisher Scientific, cat. 17504044), 1X N-2 supplement (Thermo Fisher Scientific, cat. […]
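Also: spheroids exposed to drugs for one week before readout.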
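For viability, T/C in this document: percent viability relative to DMSO vehicle control wells set as 100%.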

Row | Compound | viability, T/C (compound 0.0316 µM) | viability, T/C (compound 0.1 µM) | viability, T/C (compound 0.316 µM) | viability, T/C (compound 1 µM) | viability, T/C (compound 3.16 µM) | viability, T/C (compound 10 µM) | IC50 (curve of compound) | viability, T/C (compound 0.000316 µM) | viability, T/C (compound 0.001 µM) | viability, T/C (compound 0.00316 µM) | viability, T/C (compound 0.01 µM) | IC50 (compound alone, run of 01/08/2024) [nM]
1 | CCc1cc2c(N3CCc4c(cc(Cn5ccnc5)cc4-c4cn(C)nc4C(F)(F)F)C3=O)cc(C)nc2c(OC)n1 | 76.6% and 76.9% and 72.4% | 62.2% and 66.4% and 61.3% | 52.8% and 62% and 51.8% | 42% and 51.2% and 48.4% | 26.5% and 38% and 43% | 23.4% and 35.1% and 33.4% | 373 nM and 987 nM and 595 nM |  |  |  |  | 
2 | Cn1ncnc1[C@H]1c2n[nH]c(=O)c3cc(F)cc(c23)N[C@@H]1c1ccc(F)cc1 | 86.7% and 70% and 82.3% | 67% and 72.8% and 67.5% |  |  |  |  | > 100 nM | 89.5% and 93.8% and 99.4% | 85.5% and 91.6% and 86% | 76.9% and 94.5% and 82.1% | 89.5% and 92.3% and 85.3% | 
3 | CNCc1ccc(-c2[nH]c3cc(F)cc4c3c2CCNC4=O)cc1 | 93.7% and 109% and 101% | 89.6% and 97.2% and 79.2% | 92.8% (2×) and 87.7% | 77.7% and 97.3% and 82.6% | 86.7% and 87.1% and 95.7% | 78% and 80.2% and 84.1% | > 10000 nM |  |  |  |  | 
4 | COc1cccc2c1C(=O)c1c(O)c3c(c(O)c1C2=O)CC(O)(C(=O)CO)CC3OC1CC(N)C(O)C(C)O1 (stereo unspecified) | 77.2% and 83% and 80.9% | 57.6% and 62.2% and 59.7% | 17.8% and 23.1% and 18.7% | 3.79% and 5.62% and 2.27% | 0.22% and 0.29% and 0.23% | 0.25% and 0.29% and 0.23% | 124 nM and 143 nM and 131 nM |  |  |  |  | 
5 | COC1C(OC(N)=O)C(O)C(Oc2ccc3c(O)c(NC(=O)c4ccc(O)c(CC=C(C)C)c4)c(=O)oc3c2C)OC1(C)C (stereo unspecified) |  |  | 101% [middle of 13 runs] |  |  | 98.8% [middle of 13 runs] |  |  |  |  |  | > 10000
